{
  "source": "paper PMC5218480",
  "about": "(PLoS ONE, 2017)",
  "test_system": "MV-4-11 cells",
  "assay": "Gene expression microarray analysis (Affymetrix PrimeView) and GSEA",
  "assay_type": "cell-based, human",
  "design": "RFU PODN (11730768_x_at) / Fold change /veh PODN (11730768_x_at) / RFU LINC00158 (11744669_a_at) / Fold change /veh LINC00158 (11744669_a_at) / RFU DUSP10 (11751237_a_at) / Fold change /veh DUSP10 (11751237_a_at) / RFU ID3 (11757404_x_at) / Fold change /veh ID3 (11757404_x_at) / RFU PLEKHG5 (11737974_s_at) / Fold change /veh PLEKHG5 (11737974_s_at) / RFU LRRC4B (11730491_at) / Fold change /veh LRRC4B (11730491_at) / RFU GIMAP4 (11747438_a_at) / Fold change /veh GIMAP4 (11747438_a_at) / RFU KRT8 (11758183_x_at) / Fold change /veh KRT8 (11758183_x_at) / RFU CNN1 (11734310_a_at) / Fold change /veh CNN1 (11734310_a_at) / RFU VPS37D (11726825_at) / Fold change /veh VPS37D (11726825_at) / RFU C10orf10 (11716522_x_at) / Fold change /veh C10orf10 (11716522_x_at) / RFU KIR2DL2 /// KIR2DL4 /// KIR2DL5A /// KIR2DL5B /// KIR2DS1 /// KIR2DS2 /// KIR2DS3 /// KIR2DS4 /// KIR3DL3 /// KIR3DL3 /// KIR3DS1 (11738374_at) / Fold change /veh KIR2DL2 /// KIR2DL4 /// KIR2DL5A /// KIR2DL5B /// KIR2DS1 /// KIR2DS2 /// KIR2DS3 /// KIR2DS4 /// KIR3DL3 /// KIR3DL3 /// KIR3DS1 (11738374_at) / RFU C1QL1 (11718748_at) / Fold change /veh C1QL1 (11718748_at) / RFU TMPRSS4 (11747572_a_at) / Fold change /veh TMPRSS4 (11747572_a_at) / RFU HAMP (11756126_x_at) / Fold change /veh HAMP (11756126_x_at) / RFU RNFT2 (11725882_a_at) / Fold change /veh RNFT2 (11725882_a_at) / RFU NR4A2 (11747474_a_at) / Fold change /veh NR4A2 (11747474_a_at) / RFU ABCC12 (11746883_a_at) / Fold change /veh ABCC12 (11746883_a_at) / RFU TMEM136 (11760407_x_at) / Fold change /veh TMEM136 (11760407_x_at) / RFU CLDN22 /// WWC2 (11732394_at) / Fold change /veh CLDN22 /// WWC2 (11732394_at) / RFU HLA-DPB1 (11760878_x_at) / Fold change /veh HLA-DPB1 (11760878_x_at) / RFU SPINT1 (11716480_a_at) / Fold change /veh SPINT1 (11716480_a_at) / RFU GAP43 (11754022_s_at) / Fold change /veh GAP43 (11754022_s_at) / RFU A4GNT (11735810_at) / Fold change /veh A4GNT (11735810_at) / RFU PRB3 (11715151_x_at) / Fold change /veh PRB3 (11715151_x_at) / RFU TUBB4B (11761932_at) / Fold change /veh TUBB4B (11761932_at) / RFU CAPN14 (11732068_a_at) / Fold change /veh CAPN14 (11732068_a_at) / RFU TMCC2 (11721928_a_at) / Fold change /veh TMCC2 (11721928_a_at) / RFU IRGQ (11745062_a_at) / Fold change /veh IRGQ (11745062_a_at) / RFU FAM174B (11720279_a_at) / Fold change /veh FAM174B (11720279_a_at) / RFU TMPRSS4 (11748680_a_at) / Fold change /veh TMPRSS4 (11748680_a_at) / RFU FAM212B (11763350_a_at) / Fold change /veh FAM212B (11763350_a_at) / RFU PLEKHG5 (11743358_a_at) / Fold change /veh PLEKHG5 (11743358_a_at) / RFU ZSCAN30 (11745921_a_at) / Fold change /veh ZSCAN30 (11745921_a_at) / RFU CMKLR1 (11741424_a_at) / Fold change /veh CMKLR1 (11741424_a_at) / RFU LOC101060620 /// MAPK8IP1 (11723275_at) / Fold change /veh LOC101060620 /// MAPK8IP1 (11723275_at) / RFU SPTSSB (11747773_x_at) / Fold change /veh SPTSSB (11747773_x_at) / RFU PRSS12 (11739890_at) / Fold change /veh PRSS12 (11739890_at) / RFU BIN1 (11741810_x_at) / Fold change /veh BIN1 (11741810_x_at) / RFU WNT11 (11732464_a_at) / Fold change /veh WNT11 (11732464_a_at) / RFU C10orf10 (11716521_a_at) / Fold change /veh C10orf10 (11716521_a_at) / RFU C5orf56 (11738089_at) / Fold change /veh C5orf56 (11738089_at) / RFU CYB561 (11721691_x_at) / Fold change /veh CYB561 (11721691_x_at) / RFU ANKRD19P (11752326_a_at) / Fold change /veh ANKRD19P (11752326_a_at) / RFU OR2T12 /// OR2T33 /// OR2T8 (11738714_s_at) / Fold change /veh OR2T12 /// OR2T33 /// OR2T8 (11738714_s_at) / RFU VCAN (11748164_a_at) / Fold change /veh VCAN (11748164_a_at) / RFU JSRP1 (11732532_at) / Fold change /veh JSRP1 (11732532_at) / RFU KRTAP10-11 (11738290_x_at) / Fold change /veh KRTAP10-11 (11738290_x_at) / RFU MYO3A (11730013_a_at) / Fold change /veh MYO3A (11730013_a_at) / RFU EBF3 (11725865_a_at) / Fold change /veh EBF3 (11725865_a_at) / RFU CAMK2N1 (11719241_x_at) / Fold change /veh CAMK2N1 (11719241_x_at) / RFU C5orf56 (11738088_a_at) / Fold change /veh C5orf56 (11738088_a_at) / RFU OLFML3 (11715873_a_at) / Fold change /veh OLFML3 (11715873_a_at) / RFU LOC100653217 /// NTM (11731650_a_at) / Fold change /veh LOC100653217 /// NTM (11731650_a_at) / RFU MAPK11 (11762145_a_at) / Fold change /veh MAPK11 (11762145_a_at) / RFU FIZ1 (11724087_x_at) / Fold change /veh FIZ1 (11724087_x_at) / RFU OASL (11726364_x_at) / Fold change /veh OASL (11726364_x_at) / RFU SOX15 (11748057_x_at) / Fold change /veh SOX15 (11748057_x_at) / RFU CD79A (11719716_a_at) / Fold change /veh CD79A (11719716_a_at) / RFU HIST1H1D (11736915_at) / Fold change /veh HIST1H1D (11736915_at) / RFU CASKIN2 (11723855_a_at) / Fold change /veh CASKIN2 (11723855_a_at) / RFU LOC730098 (11760151_x_at) / Fold change /veh LOC730098 (11760151_x_at) / RFU OR4N2 (11742367_at) / Fold change /veh OR4N2 (11742367_at) / RFU PRRT2 (11749266_a_at) / Fold change /veh PRRT2 (11749266_a_at) / RFU SNX32 (11753110_a_at) / Fold change /veh SNX32 (11753110_a_at) / RFU CDHR5 (11726645_a_at) / Fold change /veh CDHR5 (11726645_a_at) / RFU RCAN1 (11760418_a_at) / Fold change /veh RCAN1 (11760418_a_at) / RFU FAM167A (11723789_a_at) / Fold change /veh FAM167A (11723789_a_at) / RFU FAM26E (11764081_at) / Fold change /veh FAM26E (11764081_at) / RFU ISYNA1 (11749810_s_at) / Fold change /veh ISYNA1 (11749810_s_at) / RFU ACY1 (11761880_at) / Fold change /veh ACY1 (11761880_at) / RFU 11764098_at / Fold change /veh 11764098_at / RFU SAMD14 (11745864_x_at) / Fold change /veh SAMD14 (11745864_x_at) / RFU NPB (11741838_a_at) / Fold change /veh NPB (11741838_a_at) / RFU TMPRSS6 (11731388_a_at) / Fold change /veh TMPRSS6 (11731388_a_at) / RFU KRTAP10-2 (11738614_at) / Fold change /veh KRTAP10-2 (11738614_at) / RFU ARHGAP8 /// PRR5-ARHGAP8 (11727945_x_at) / Fold change /veh ARHGAP8 /// PRR5-ARHGAP8 (11727945_x_at) / RFU KRTAP5-7 /// NADSYN1 (11734609_at) / Fold change /veh KRTAP5-7 /// NADSYN1 (11734609_at) / RFU RASL12 (11751679_a_at) / Fold change /veh RASL12 (11751679_a_at) / RFU CDKN2B (11736163_a_at) / Fold change /veh CDKN2B (11736163_a_at) / RFU PRF1 (11729649_at) / Fold change /veh PRF1 (11729649_at) / RFU, ZNF638 /// ZNF638-IT1 / Fold change vs veh, ZNF638 /// ZNF638-IT1 / RFU, PANK3 / Fold change vs veh, PANK3 / RFU, SH3YL1 / Fold change vs veh, SH3YL1 / RFU, ZEB2 / Fold change vs veh, ZEB2 / RFU, NRIP1 / Fold change vs veh, NRIP1 / RFU, PTTG1IP / Fold change vs veh, PTTG1IP / RFU, CAPN2 / Fold change vs veh, CAPN2 / RFU, MED14 / Fold change vs veh, MED14 / RFU, SNORA58 / Fold change vs veh, SNORA58 / RFU, C1orf63 / Fold change vs veh, C1orf63 / RFU, LRRFIP1 / Fold change vs veh, LRRFIP1 / RFU, NDUFAF7 / Fold change vs veh, NDUFAF7 / RFU, SLC12A2 / Fold change vs veh, SLC12A2 / RFU, IBTK / Fold change vs veh, IBTK / RFU, ESF1 / Fold change vs veh, ESF1 / Fold change vs veh, TMEM50B / RFU, TAOK1 / Fold change vs veh, TAOK1 / RFU, ACBD3 / Fold change vs veh, ACBD3 / RFU, TMA16 / Fold change vs veh, TMA16 / RFU, RWDD3 / Fold change vs veh, RWDD3 / RFU, BCAT1 / Fold change vs veh, BCAT1 / RFU, EDEM3 / Fold change vs veh, EDEM3 / RFU, TMEM33 / Fold change vs veh, TMEM33 / RFU, WDR75 / Fold change vs veh, WDR75 / RFU, AHCTF1 / Fold change vs veh, AHCTF1 / RFU, TFRC / Fold change vs veh, TFRC / RFU, ZDHHC17 / Fold change vs veh, ZDHHC17 / RFU, NOM1 / Fold change vs veh, NOM1 / RFU, ARL8B / Fold change vs veh, ARL8B / RFU, ZBTB11 / Fold change vs veh, ZBTB11 / RFU, TAMM41 / Fold change vs veh, TAMM41 / RFU, KIAA1704 /// LOC100996395 / Fold change vs veh, KIAA1704 /// LOC100996395 / RFU, ING1 / Fold change vs veh, ING1 / RFU, TRMT61B / Fold change vs veh, TRMT61B / RFU, FUBP3 / Fold change vs veh, FUBP3 / RFU, TP53 / Fold change vs veh, TP53 / RFU, TNKS2 / Fold change vs veh, TNKS2 / RFU, ZFP14 / Fold change vs veh, ZFP14 / RFU, ACTR2 / Fold change vs veh, ACTR2 / RFU, PPP3R1 / Fold change vs veh, PPP3R1 / RFU, PIK3R1 / Fold change vs veh, PIK3R1 / RFU, HNRNPA1 / Fold change vs veh, HNRNPA1 / RFU, RNF170 / Fold change vs veh, RNF170 / RFU, ZNF28 / Fold change vs veh, ZNF28 / RFU, RNGTT / Fold change vs veh, RNGTT / RFU, OGT / Fold change vs veh, OGT / RFU, BRD1 / Fold change vs veh, BRD1 / RFU, MARS / Fold change vs veh, MARS / RFU, ZNF655 / Fold change vs veh, ZNF655 / RFU, FAHD1 / Fold change vs veh, FAHD1 / RFU, BDP1 / Fold change vs veh, BDP1 / RFU, LRRCC1 / Fold change vs veh, LRRCC1 / RFU, ARID1A / Fold change vs veh, ARID1A / RFU, ZNF146 / Fold change vs veh, ZNF146 / RFU, ZNF330 / Fold change vs veh, ZNF330 / RFU, GPN3 / Fold change vs veh, GPN3 / RFU, C9orf123 / Fold change vs veh, C9orf123 / RFU, N4BP2L2 / Fold change vs veh, N4BP2L2 / RFU, ARFIP1 / Fold change vs veh, ARFIP1 / RFU, FAM179B / Fold change vs veh, FAM179B / RFU, BCL10 / Fold change vs veh, BCL10 / RFU, UHRF1BP1L / Fold change vs veh, UHRF1BP1L / RFU, BET1 / Fold change vs veh, BET1 / RFU, CNOT2 / Fold change vs veh, CNOT2 / RFU, ZNF268 / Fold change vs veh, ZNF268 / Fold change vs veh, ZNF507 / RFU, DGCR2 / Fold change vs veh, DGCR2 / RFU, WDSUB1 / Fold change vs veh, WDSUB1 / Fold change vs veh, HSP90B1 /// MIR3652 / RFU, ADSS / Fold change vs veh, ADSS / RFU, GK / Fold change vs veh, GK / RFU, ZNF148 / Fold change vs veh, ZNF148 / RFU, TAF9 / Fold change vs veh, TAF9 / RFU, SLC1A5 / Fold change vs veh, SLC1A5 / RFU, SLMO2 / Fold change vs veh, SLMO2 / RFU, ABCC4 / Fold change vs veh, ABCC4 / RFU, LOC101060439 /// RAP1B / Fold change vs veh, LOC101060439 /// RAP1B / RFU, RFX7 / Fold change vs veh, RFX7 / RFU, GTPBP10 / Fold change vs veh, GTPBP10 / RFU, CNEP1R1 / Fold change vs veh, CNEP1R1 / RFU, BIVM-ERCC5 /// ERCC5 / Fold change vs veh, BIVM-ERCC5 /// ERCC5 / RFU, ILF3 / Fold change vs veh, ILF3 / RFU 11762660_at / Fold change /veh 11762660_at / RFU VCAN (11757783_s_at) / Fold change /veh VCAN (11757783_s_at) / RFU DDX43 (11728927_at) / Fold change /veh DDX43 (11728927_at) / RFU KRT8 (11758188_x_at) / Fold change /veh KRT8 (11758188_x_at) / RFU NKD1 (11759106_at) / Fold change /veh NKD1 (11759106_at) / RFU SRD5A1 (11742802_a_at) / Fold change /veh SRD5A1 (11742802_a_at) / RFU TPSAB1 /// TPSB2 (11721975_s_at) / Fold change /veh TPSAB1 /// TPSB2 (11721975_s_at) / RFU GSTM3 (11746129_a_at) / Fold change /veh GSTM3 (11746129_a_at) / RFU IL23R (11737362_x_at) / Fold change /veh IL23R (11737362_x_at) / RFU TMEM51 (11727254_a_at) / Fold change /veh TMEM51 (11727254_a_at) / RFU PIWIL2 (11732686_x_at) / Fold change /veh PIWIL2 (11732686_x_at) / RFU ORM1 (11744905_x_at) / Fold change /veh ORM1 (11744905_x_at) / RFU CCDC152 (11743942_at) / Fold change /veh CCDC152 (11743942_at) / RFU ECM1 (11717891_a_at) / Fold change /veh ECM1 (11717891_a_at) / RFU IL23R (11748794_a_at) / Fold change /veh IL23R (11748794_a_at) / RFU TNFAIP8L3 (11732012_x_at) / Fold change /veh TNFAIP8L3 (11732012_x_at) / RFU MBOAT4 (11741988_at) / Fold change /veh MBOAT4 (11741988_at) / RFU 11764193_at / Fold change /veh 11764193_at / RFU TMEM53 (11763286_at) / Fold change /veh TMEM53 (11763286_at) / RFU MAGEB2 (11727129_at) / Fold change /veh MAGEB2 (11727129_at) / RFU TMEM200A (11744735_a_at) / Fold change /veh TMEM200A (11744735_a_at) / RFU CCDC152 (11751479_a_at) / Fold change /veh CCDC152 (11751479_a_at) / RFU FAM211A (11726209_a_at) / Fold change /veh FAM211A (11726209_a_at) / RFU RGS16 (11746705_a_at) / Fold change /veh RGS16 (11746705_a_at) / RFU VCAN (11755009_s_at) / Fold change /veh VCAN (11755009_s_at) / RFU RHOB (11743442_s_at) / Fold change /veh RHOB (11743442_s_at) / RFU RGS16 (11720943_a_at) / Fold change /veh RGS16 (11720943_a_at) / RFU RGS16 (11720944_at) / Fold change /veh RGS16 (11720944_at) / RFU, VPS4B / Fold change vs veh, VPS4B / RFU, CREB1 / Fold change vs veh, CREB1 / RFU, DNAJC13 / Fold change vs veh, DNAJC13 / RFU, GNAQ / Fold change vs veh, GNAQ / RFU, CDK5R1 / Fold change vs veh, CDK5R1 / RFU, ZRANB3 / Fold change vs veh, ZRANB3 / RFU, CUL4A / Fold change vs veh, CUL4A / RFU, CCNY / Fold change vs veh, CCNY / RFU, UFL1 / Fold change vs veh, UFL1 / RFU, COG3 / Fold change vs veh, COG3 / RFU, DIAPH2 / Fold change vs veh, DIAPH2 / RFU, SKA2 / Fold change vs veh, SKA2 / RFU, AFF3 / Fold change vs veh, AFF3 / RFU, LMF1 / Fold change vs veh, LMF1 / RFU, IPO11 / Fold change vs veh, IPO11 / RFU, DFFB / Fold change vs veh, DFFB / RFU, FOXP1 / Fold change vs veh, FOXP1 / RFU, CARD8 / Fold change vs veh, CARD8 / RFU, STRN3 / Fold change vs veh, STRN3 / RFU, ADK / Fold change vs veh, ADK / RFU, RASSF2 / Fold change vs veh, RASSF2 / RFU, WIPF1 / Fold change vs veh, WIPF1 / RFU, LARP1B / Fold change vs veh, LARP1B / RFU, RASA1 / Fold change vs veh, RASA1 / RFU, RB1 / Fold change vs veh, RB1 / RFU, PPFIA1 / Fold change vs veh, PPFIA1 / RFU, MAT2A / Fold change vs veh, MAT2A / RFU, CCT5 / Fold change vs veh, CCT5 / RFU, WDR92 / Fold change vs veh, WDR92 / RFU, CUX1 / Fold change vs veh, CUX1 / RFU, TTC7A / Fold change vs veh, TTC7A / RFU, TMEM135 / Fold change vs veh, TMEM135 / RFU, DEPTOR / Fold change vs veh, DEPTOR / RFU, CPM / Fold change vs veh, CPM / RFU, DNAJB6 / Fold change vs veh, DNAJB6 / RFU, CACNA2D3 / Fold change vs veh, CACNA2D3 / RFU, DTX4 / Fold change vs veh, DTX4 / RFU, TFCP2 / Fold change vs veh, TFCP2 / RFU, GMCL1 /// GMCL1P1 / Fold change vs veh, GMCL1 /// GMCL1P1 / RFU, AEBP2 / Fold change vs veh, AEBP2 / RFU, SNHG1 /// SNORD22 /// SNORD25 /// SNORD26 /// SNORD27 /// SNORD28 /// SNORD29 /// SNORD31 / Fold change vs veh, SNHG1 /// SNORD22 /// SNORD25 /// SNORD26 /// SNORD27 /// SNORD28 /// SNORD29 /// SNORD31 / Fold change (Aza/veh), C12orf56 (ProbeSet 11735607_a_at) / Fold change (ACY-1035/veh), C12orf56 (ProbeSet 11735607_a_at) / Fold change (Aza/veh), FGFR1OP (ProbeSet 11751329_s_at) / Fold change (ACY-1035/veh), FGFR1OP (ProbeSet 11751329_s_at) / Fold change (Aza/veh), VPS36 (ProbeSet 11739960_a_at) / Fold change (ACY-1035/veh), VPS36 (ProbeSet 11739960_a_at) / RFU SYPL1 (11715823_x_at) / Fold change /veh SYPL1 (11715823_x_at) / RFU IGFBP7 (11715501_s_at) / Fold change /veh IGFBP7 (11715501_s_at) / RFU REEP3 (11722064_at) / Fold change /veh REEP3 (11722064_at) / RFU IGLL1 (11728026_x_at) / Fold change /veh IGLL1 (11728026_x_at): dose or concentration left out as unconfirmed",
  "settings": "ProbeSet 11747937_a_at; LIST D",
  "data": [
    {"smiles": "Nc1ncn([C@@H]2O[C@H](CO)[C@@H](O)[C@H]2O)c(=O)n1", "note": "[azacitidine]", "values": [
      {"measurement": "RFU, DNAJB6", "result": 212.79, "unit": "RFU"}
    ]}
  ]
}
